From the NIST ThermoML archive (doi:10.1016/j.jct.2015.10.004)
“And” between values parts separate entries of the source, which are not always exact repeats. Equal values may be shown once.

Experiment: mn = molality of the nth substance listed, in mol/kg
Conditions: 101 kPa, Liquid; for mass density: Pycnometric method; for electrical conductivity: Alternating current cell with electrodes

O=S(=O)([O-])C(F)(F)C(F)(F)C(F)(F)C(F)(F)F.[K+] [potassium perfluorobutanesulfonate] + O
Conditions	electrical conductivity, 293.15 K [S/m]	electrical conductivity, 298.15 K [S/m]	electrical conductivity, 303.15 K [S/m]	electrical conductivity, 308.15 K [S/m]	electrical conductivity, 313.15 K [S/m]	mass density, 288.15 K [kg/m3]	mass density, 293.15 K [kg/m3]	mass density, 298.15 K [kg/m3]	mass density, 303.15 K
m1 = 0.0003	0.00278	0.00312	0.00344	0.00378	0.00413	–	–	–	–
m1 = 0.00054	0.00499	0.00562	0.00619	0.00681	0.00742	–	–	–	–
m1 = 0.00087	0.00784	0.00882	0.00972	0.0107	0.0117	–	–	–	–
m1 = 0.00125	0.0111	0.0125	0.0138	0.0152	0.0166	–	–	–	–
m1 = 0.00164	0.0145	0.0163	0.018	0.0197	–	–	–	–	–
m1 = 0.00207	0.0181	0.0203	0.0226	0.0248	0.0271	–	–	–	–
m1 = 0.00259	0.0227	0.0253	0.0279	0.0307	0.0335	–	–	–	–
m1 = 0.00315	0.0273	0.0304	0.0336	0.0369	0.0403	–	–	–	–
m1 = 0.00374	0.0322	0.0357	0.0395	0.0434	0.0474	–	–	–	–
m1 = 0.00437	0.0372	0.0415	0.0457	0.0504	0.0549	–	–	–	–
m1 = 0.00501	0.0423	0.0471	0.0521	0.0572	0.0625	–	–	–	–
m1 = 0.00571	0.0478	0.0532	0.0588	0.0646	0.0705	–	–	–	–
m1 = 0.00646	0.0537	0.0596	0.0658	0.0725	0.0792	–	–	–	–
m1 = 0.00723	0.0596	0.0662	0.0732	0.0805	0.0878	–	–	–	–
m1 = 0.00809	0.0661	0.0734	0.081	–	0.0976	–	–	–	–
m1 = 0.00904	0.0731	0.0814	–	–	–	–	–	–	–
m1 = 0.04	–	–	–	–	–	1006.5	1005.6	1004.3	1002.7 kg/m3 and 1002.8 kg/m3

O=S(=O)([O-])C(F)(F)C(F)(F)C(F)(F)C(F)(F)C(F)(F)C(F)(F)C(F)(F)C(F)(F)F.[K+] [potassium perfluorooctanesulfonate] + O
Conditions	electrical conductivity, 293.15 K [S/m]	electrical conductivity, 298.15 K [S/m]	electrical conductivity, 303.15 K [S/m]	electrical conductivity, 308.15 K [S/m]	electrical conductivity, 313.15 K [S/m]	mass density, 288.15 K [kg/m3]	mass density, 293.15 K [kg/m3]	mass density, 298.15 K	mass density, 303.15 K
m1 = 0.0003	–	0.00301	0.00325	0.00359	0.00392	–	–	–	–
m1 = 0.00033	0.00284	0.00326	0.00353	0.0039	0.00427	–	–	–	–
m1 = 0.00036	0.00306	0.00352	0.00381	0.0042	0.0046	–	–	–	–
m1 = 0.00039	0.00326	0.00376	0.00407	0.00449	0.00492	–	–	–	–
m1 = 0.00041	0.00347	0.00399	0.00432	0.00478	0.00522	–	–	–	–
m1 = 0.00044	0.00366	0.00421	0.00456	0.00504	0.0055	–	–	–	–
m1 = 0.00046	0.00384	0.00444	0.00481	0.00531	0.0058	–	–	–	–
m1 = 0.00049	0.00404	0.00466	0.00506	0.0056	0.0061	–	–	–	–
m1 = 0.0005	–	–	–	–	–	999.3	998.3	997.1 kg/m3 and 997.2 kg/m3	995.7 kg/m3 and 995.8 kg/m3
m1 = 0.00052	0.00427	0.00492	0.00534	0.00592	0.00644	–	–	–	–
m1 = 0.00054	0.00447	0.00516	0.00559	0.00621	0.00673	–	–	–	–
m1 = 0.00057	0.00468	0.00541	0.00586	0.0065	0.00706	–	–	–	–
m1 = 0.0006	0.0049	0.00564	0.00612	0.00679	0.00737	–	–	–	–
m1 = 0.00062	0.0051	0.00589	0.00638	0.00709	0.00769	–	–	–	–
m1 = 0.00066	0.00534	0.00616	0.00667	0.00742	0.00805	–	–	–	–
m1 = 0.00069	0.00559	0.00643	0.00697	0.00775	0.00843	–	–	–	–
m1 = 0.00071	0.0058	0.00669	0.00724	0.00806	0.00875	–	–	–	–
m1 = 0.00075	–	0.00698	0.00756	0.00841	0.00914	–	–	–	–
m1 = 0.00078	–	0.00721	0.00782	0.00871	–	–	–	–	–
